From US9198423B2, “Active compound combinations” (BAYER INTELLECTUAL PROPERTY GMBH, priority 2011, dated 2015)

Columns and labels:
Alternaria solani = assay: Alternaria test (tomatoes)/preventive; format: in vivo, Alternaria solani on tomatoes; conditions: preventive spray, evaluated 3 days after inoculation
Protocol: Alternaria Test (Tomatoes)/Preventive [table] To produce a suitable preparation of active compound, 1 part by weight of active compound is mixed with the stated amounts of solvent and emulsifier, and the concentrate is diluted with water to the desired concentration. To test for preventive activity, young plants are sprayed with the preparation of active compound at the stated rate of application. After the spray coating has dried on, the plants are inoculated with an aqueous spore suspension of Alternaria solani. The plants are then placed in an incubation cabinet at approximately 20° C. and a relative atmospheric humidity of 100%. The test is evaluated 3 days after the inoculation. 0% means an efficacy which corresponds to that of the untreated control while an efficacy of 100% means that no disease is observed.

Venturia inaequalis = assay: Venturia test (apples)/preventive; format: in vivo, Venturia inaequalis on apples; conditions: preventive spray, evaluated 10 days after inoculation
Protocol: Venturia Test (Apples)/Preventive [table] To produce a suitable preparation of active compound, 1 part by weight of active compound is mixed with the stated amounts of solvent and emulsifier, and the concentrate is diluted with water to the desired concentration. To test for preventive activity, young plants are sprayed with the preparation of active compound at the stated rate of application. After the spray coating has dried on, the plants are inoculated with an aqueous conidia suspension of the causal agent of apple scab (Venturia inaequalis) and then remain for 1 day in an incubation cabinet at approximately 20° C. and a relative atmospheric humidity of 100%. The plants are then placed in a greenhouse at approximately 21° C. and a relative atmospheric humidity of approximately 90%. The test is evaluated 10 days after the inoculation. 0% means an efficacy which corresponds to that of the untreated control, while an efficacy of 100% means that no disease is observed.

OC(Cc1ccccc1Cl)(Cn1nc[nH]c1=S)C1(Cl)CC1 (stereo not shown) [(A) Prothioconazole, Prothioconazole]
Efficacy in % found (Alternaria solani; application rate 10 ppm a.i.): 50% | Efficacy in % found (Venturia inaequalis; application rate 10 ppm a.i.): 43%

CC(C)NC(=O)N1CC(=O)N(c2cc(Cl)cc(Cl)c2)C1=O [(B) Iprodione, Iprodione]
Efficacy in % found (Alternaria solani; application rate 40 ppm a.i.): 70% | Efficacy in % found (Venturia inaequalis; application rate 40 ppm a.i.): 3%
